Measured values taken from US20090202518A1, “Treatment of sepsis and inflammation with alpha2A Adrenergic antagonists” (The Feinstein Institute of Medical Research, priority 2005, published 2009).
Entries after “also recorded” stand apart in the source; their conditions may differ.

Legend:
[1] = tested on: Kupffer cells (KCs); assay: TNF-α release from cultured Kupffer cells; format: cell-based
From the text: The nervous system regulates the inflammatory response in real time. Our previous studies have shown that the sympathetic neurotransmitter, norepinephrine (NE), increases TNF-α release via activation of α2A-adrenoceptor (α2A-AR) on Kupffer cells (KCs). In cultured KCs, NE increases the release of TNF-α by 3.4-fold and a specific antagonist for α2A-AR, BRL-44408 maleate, reduces TNF-α secretion by 51%. However, it remains unknown whether in vivo administration of α2A-AR antagonists in sepsis is beneficial.

[2] = tested on: male rats with sepsis induced by cecal ligation and puncture (CLP); assay: Cecal ligation and puncture (CLP) model of sepsis in rats; format: in vivo, rat
Procedure: Sepsis was induced in male rats by cecal ligation and puncture (CLP). The CLP model of sepsis has been used extensively as a reliable model of the pathophysiologic and immunologic alterations in human sepsis.
BRL-44408 maleate (2.5 mg/kg BW) was administered intravenously at the time of CLP. Twenty hours after CLP, the rats were sacrificed and blood and liver samples were collected. Serum levels of TNF-α, liver enzymes (i.e., AST and ALT), lactate and creatinine were measured. Gene expression of TNF-α in the liver was analyzed. In additional groups of animals, the necrotic cecum was excised at 20 h post-CLP and the 10-day survival was recorded.

[3] = 2.5 mg/kg BW intravenously at the time of CLP, 20 h after CLP, means±SE, n = 6/group

SMILES | increase of the release of TNF-α [1] | reduction of TNF-α secretion [1] | ALT (serum level) [2, 3] | AST (serum level) [2, 3] | Creatinine (serum level) [2, 3] | Lactate (serum level) [2, 3] | TNF-α (serum level) [2, 3] | TNF-α/G3PDH (mRNA) ([2]; liver gene expression, 2.5 mg/kg BW intravenously at the time of CLP, 20 h after CLP, means±SE, n = 6/group) | 10-day survival / mortality ([2]; necrotic cecum excised at 20 h post-CLP, FIG. 1)
NC[C@H](O)c1ccc(O)c(O)c1 [NE, norepinephrine] | 3.4 fold |  |  |  |  |  |  |  | 
CC1c2ccccc2CN1CC1=NCCN1.O=C(O)/C=C\C(=O)O (stereo not drawn) [BRL-44408 maleate] |  | 51% | 20.5 ± 4.5 IU/L | 20.9 ± 5.3 IU/L | 1.1 ± 0.2 mg/dL | 20.6 ± 1.9 mg/dL | 91.8 ± 8.1 pg/mL | 0.5 ± 0.1 | increased survival; also recorded: reduced mortality
